Columns and labels:
5-Lipoxygenase = target: T1, 5-Lipoxygenase (Cavia porcellus, UniProt A0A286X958); experiment: 5-Lipoxygenase inhibiting activity (5-hydroxyeicosatetraenoic acid formation from 14C-arachidonic acid, cytosol fraction of polymorphonuclear leucocytes); format: biochemical; conditions: guinea pig polymorphonuclear leucocyte cytosol, 5-hydroxyeicosatetraenoic acid radioactivity
T1 construct: the polymorphonuclear leucocytes were collected and the cytosol fraction was obtained as an enzyme source; endogenous in cells; host or cells: guinea pig peritoneal polymorphonuclear leucocytes (casein-elicited), cytosol fraction
T1 sequence (A0A286X958 1-674): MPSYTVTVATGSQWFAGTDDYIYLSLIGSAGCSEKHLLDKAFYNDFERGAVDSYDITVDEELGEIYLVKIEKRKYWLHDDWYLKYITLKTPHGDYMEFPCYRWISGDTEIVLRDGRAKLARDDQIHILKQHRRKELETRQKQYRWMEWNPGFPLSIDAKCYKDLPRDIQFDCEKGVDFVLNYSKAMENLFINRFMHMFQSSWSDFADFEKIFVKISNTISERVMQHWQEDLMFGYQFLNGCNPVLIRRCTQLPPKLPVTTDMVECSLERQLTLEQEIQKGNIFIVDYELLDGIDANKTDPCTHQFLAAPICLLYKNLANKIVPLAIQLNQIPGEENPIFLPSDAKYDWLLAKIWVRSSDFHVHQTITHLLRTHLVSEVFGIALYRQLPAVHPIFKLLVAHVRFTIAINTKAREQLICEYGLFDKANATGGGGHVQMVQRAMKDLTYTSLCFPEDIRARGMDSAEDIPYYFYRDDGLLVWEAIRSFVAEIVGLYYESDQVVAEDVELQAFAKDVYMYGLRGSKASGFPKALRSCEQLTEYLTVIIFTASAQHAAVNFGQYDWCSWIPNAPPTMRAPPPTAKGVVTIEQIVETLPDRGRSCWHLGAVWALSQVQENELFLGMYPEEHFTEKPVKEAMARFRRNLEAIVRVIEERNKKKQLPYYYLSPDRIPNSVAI
Experimental: (2) 5-Lipoxygenase inhibiting activity
This assay was carried out by the method described in Kenkichi Ochi et al., J. Biol. Chem., 258, 5754-5758 (1983).
Casein was injected into the abdominal cavity of a guinea pig, and the polymorphonuclear leucocytes were collected and the cytosol fraction was obtained as an enzyme source. ^14 C-arachidonic acid was reacted with the enzyme and the test drug at various concentrations over a predetermined period of time. The obtained 5-hydroxyeicosatetraenoic acid was separated by thin layer chromatography and the radioactivity was determined. The IC50 values were calculated by the comparison with the radioactivity of the control.

Cyclooxygenase = Cyclooxygenase inhibiting effect (prostaglandin E2 formation from 14C-arachidonic acid, seminal vesicular gland microsomes); format: biochemical; conditions: seminal vasicular gland microsomes, prostaglandin E2 radioactivity
Experimental: (1) Cyclooxygenase inhibiting effect
This assay was carried out by the method described in Russell J. Taylor et al., Biochem. Pharmacol., 25, 2479-2484 (1976).
^14 C-arachidonic acid was reacted with seminal vasicular gland microsomes and the test drugs at various concentrations over a predetermined period of time and the obtained prostaglandin E2 was separated by thin layer chromatography. The radioactivity of prostaglandin E2 was determined by liquid scintillation counter. The IC50 values were calculated by the comparison with the radioactivity of the control.

SMILES | IC50 (5-Lipoxygenase) [nM] | IC50 (Cyclooxygenase) [nM]
CCOC(=O)C(=Cc1cc(OC)c(O)c(OC)c1)C(=O)NCCc1onc(-c2ccc(OC)cc2)c1-c1ccc(OC)cc1 [Compound 1] | 1170 | 2870
COc1ccc(-c2noc(CCNC(=O)C(C#N)=Cc3cc(OC)c(O)c(OC)c3)c2-c2ccc(OC)cc2)cc1 [Compound 2] | 650 | 4050
COCC(=Cc1cc(OC)c(O)c(OC)c1)C(=O)NCCc1onc(-c2ccc(OC)cc2)c1-c1ccc(OC)cc1 [Compound 3] | 300 | 1200
CCCC(=Cc1cc(OC)c(O)c(OC)c1)C(=O)NCCc1onc(-c2ccc(OC)cc2)c1-c1ccc(OC)cc1 [Compound 4] | 180 | 950
COc1ccc(-c2noc(CCNC(=O)C(=Cc3cc(OC)c(O)c(OC)c3)c3ccccn3)c2-c2ccc(OC)cc2)cc1 [Compound 6] | 620 | 1380
COc1ccc(-c2noc(CCNC(=O)C(=Cc3cc(OC)c(O)c(OC)c3)c3cccs3)c2-c2ccc(OC)cc2)cc1 [Compound 7] | 80 | 170
COc1ccc(-c2noc(CCNC(=O)C(=Cc3cc(OC)c(O)c(OC)c3)C(=O)N(C)C)c2-c2ccc(OC)cc2)cc1 [Compound 8] | 260 | 4760

Further lines, results first:

IC50 (5-Lipoxygenase) [nM] | IC50 (Cyclooxygenase) [nM] | SMILES
240 | 680 | COc1ccc(-c2noc(CCNC(=O)C(C#N)=CC=Cc3cc(OC)c(O)c(OC)c3)c2-c2ccc(OC)cc2)cc1 [Compound 11]
180 | 110 | COc1ccc(-c2noc(CCNC(=O)C(=Cc3cc(OC)c(O)c(OC)c3)NC(C)=O)c2-c2ccc(OC)cc2)cc1 [Compound 18]
240 | 1850 | COc1ccc(-c2noc(C(C#N)=Cc3cc(OC)c(O)c(OC)c3)c2-c2ccc(OC)cc2)cc1 [Compound 20]
90 | 2940 | COc1ccc(-c2noc(CCN(CC(=O)O)C(=O)C=CC=Cc3cc(OC)c(O)c(OC)c3)c2-c2ccc(OC)cc2)cc1 [Compound 23]
